Results from a melting point compilation (Tetko et al.; mined from patent text by program, amines drawn as free bases though some values may be those of a salt).

Row | Compound | melting point [°C]
1 | Oc1cccc(-c2cc(-c3ccc(-c4ccccc4)cc3)cc(-c3ccc4ccccc4c3)n2)c1 | 174 to 175
2 | COc1cc2c(Nc3ccc(Sc4nccn4C)c(Cl)c3)c(C#N)cnc2cc1N1CCC(N2CCOCC2)CC1 | 219 to 221
3 | CC(C(=O)O)c1ccc2c(c1)C(=O)Cc1ccccc1O2 (stereo unspecified) | 152 to 154
4 | COc1cccc(-c2ccnc(Nc3cc(OC)c(OC)c(OC)c3)n2)c1 | 155 to 156
5 | O=C(O)c1nn(-c2ccccc2)c2c1CCc1cc(Cl)ccc1-2 | 282
6 | CCOC(=O)c1cc(N=c2sc(=S)n3n2CCCC3)c(F)cc1F | 91 to 92
7 | O=[N+]([O-])c1ccc(-c2nc3c(Cl)ncnc3o2)cc1 | 231
8 | CC(C)(C)OC(=O)C1=C(c2ccccc2)C(c2ccccc2)OC1=O (stereo unspecified) | 109 to 111
9 | CCOC(=O)C1=C(C)NC(c2cscn2)=NC1c1cccc(O)c1 (stereo unspecified) | 180 to 183
10 | O=C(NCc1ccccc1)C1c2ccccc2-c2ccccc21 | 195 to 200
11 | N#CCC(=O)NCc1ccc(Cl)nc1 | 119
12 | O=C(O)C(=O)c1ccc(OCOc2ccccc2)cc1 | 72 to 74
13 | CN(O)C(=O)C1CCC(C2CCCCC2)CC1 (stereo unspecified) | 89 to 90
14 | CC(=O)Nc1ccc(Cl)cc1C(=O)c1ccccc1 | 114
15 | CCC(C)(C)NC(=O)n1nc(C)n(NC)c1=O | 98
16 | CCCCCCCC(CC(=O)OO)CC(=O)OO | 19 to 22
17 | O=C(Nc1cccc(Cc2nnn[nH]2)c1)C(F)(F)C(F)(F)C(F)(F)C(F)(F)C(F)(F)C(F)(F)C(F)(F)F | 163 to 166
18 | CCCCOc1cc(CC(=O)O)n(Cc2ccc(Cl)cc2Cl)n1 | 105 to 108
19 | Cc1c(C)n(CC2CC2)c2c(OCc3ccccc3)nncc12 | 123 to 124
20 | O=C(CCCBr)Nc1ccc(O)cc1 | 142 to 144
21 | CC1(C)Oc2cc(Cl)c(F)cc2[C@@H](Br)[C@@H]1O (relative stereo) | 97 to 99
22 | O=C1Nc2ccc(Cl)cc2C1(NCCc1ccccn1)c1ccccc1Cl (stereo unspecified) | 178
23 | O=C(Nc1ccc(N2CCN(C(=O)Nc3ccc(OCCO)cc3C(F)(F)F)CC2)cc1)Nc1ccccc1OC(F)F | 118 to 120
24 | CCCCn1c(O)cc(C)c(C#N)c1=O | 218 to 222
25 | COC(=O)CCc1cc2cc(F)c(Cl)cc2n1S(=O)(=O)c1ccccc1 | 127 to 130
26 | O=C(O)CCCCCCCCCCCOC(=O)OCC(Cl)(Cl)Cl | 44.6 to 46.4

Row | Compound | melting point [°C]
27 | COc1nc(C)cnc1NS(=O)(=O)c1cccnc1-c1ccc(C=CC(=O)O)cc1 | 233 to 235
28 | CC1(C)CC(N(C=O)C2CCCCC2)CC(C)(C)N1 | 105
29 | CC(C)N(C(C)C)C(C)CN1C(=O)C(=O)c2ccccc21 (stereo unspecified) | 111 to 112
30 | C=CCN(C(=O)Nc1cc(C)c(S(=O)(=O)C[N+](=O)[O-])c(C)c1)c1ccccc1 | 164 to 165
31 | COc1ccccc1Cn1c(-c2cc(OC)c(OC)c(OC)c2)nc2ccccc21 | 136
32 | O=c1c2c[nH]c3cccnc3c-2nn1-c1ccccc1 | 314 to 316
33 | CC(=O)N(C1(c2ccc(OCc3ccc4ccccc4n3)cc2)CCCC1)S(=O)(=O)c1ccccc1C | 80
34 | O=c1c(Cl)cn(-c2cc3[nH]c(=O)c(=O)[nH]c3cc2[N+](=O)[O-])cc1Cl | > 300
35 | FC(F)(F)c1cc(-c2ccc(Cl)cc2)nc2c(-c3ccncc3)ncn12 | 290
36 | CC(C)c1ccc2c(c1)c(Sc1ccccc1)c(CC(=O)O)n2Cc1ccc(Cl)cc1 | 151 to 153
37 | C=C1C(=O)N(CC(=O)O)C(=O)N1Cc1cccc([N+](=O)[O-])c1 | 169 to 171
38 | COc1ccc(-c2ccoc2)c2c1c(CCN(C)C)cn2C | 80 to 81
39 | CC(C)(Oc1ccc(NC(=O)Nc2cc(Cl)cc(Cl)c2)cc1)C(=O)O | 182 to 184
40 | COc1ccc(CCC(=NNc2ccc(C3=NNC(=O)CC3C)cc2)c2ccc(O)cc2O)cc1OC (stereo unspecified) | 135 to 140
41 | CCc1nc2c(-c3ccc(OC)cc3Cl)ncnc2n1C(C1CC1)C1CC1 | 139 to 140
42 | CCN(c1ccccc1)C1CC(C)N(C(C)=O)c2ccc(-c3ccccc3)cc21 (stereo unspecified) | 121
43 | Nc1ccc(C(=O)c2ccccc2)cc1F | 83 to 85
44 | O=C1c2ccccc2C(=O)N1CC1CC1c1cccc2nnsc12 (stereo unspecified) | 123 to 125
45 | Cc1c(-c2ccncc2)[nH]c(-c2ccncc2)c1C=O | 278 to 280
46 | CC(C)(C)C1Cn2c(nc3ccccc32)-c2ccccc2O1 (stereo unspecified) | 149 to 150
47 | CC(C)(C)OC(=O)N1CC=C(c2ccc(N)cc2F)CC1 | 96 to 98
48 | COc1c(Cl)cc(Cl)c(OC)c1C(=O)O | 98 to 100
49 | Cc1ncc(C(=O)O)cn1 | 166 to 170
50 | CCN(CCOc1ccc(NC(=O)c2cccc3c(=O)c4ccccc4[nH]c23)cc1)Cc1ccccc1 | 157
51 | O=S(=O)(CCc1ccc(-c2ccccc2)cc1)N1CC(CN2CCCC2)Cc2ccccc21 (stereo unspecified) | 107 to 110
